Experimental data as given in patent US20230406885A1, “CYCLIC PEPTIDES FOR TRAPPING INTERLEUKIN-1 BETA” (MERCK SHARP & DOHME LLC, priority 2022, published 2023).
*1 amine or outer side, *2 acyl side, *3 side chain or, on linkers, in order; H or OH if unused. Where a SMILES comes first, the peptide text is derived from it. [ ]: non-standard residue; d: D form. Phe(4-(trans-4-COOH-cHex)) = N[C@@H](Cc1ccc([C@H]2CC[C@H](C(=O)O)CC2)cc1)C(=O)O; Phe(4-(cis-4-COOH-cHex)) = N[C@@H](Cc1ccc([C@H]2CC[C@@H](C(=O)O)CC2)cc1)C(=O)O; Phe(4-(4-Ac-piperazinyl)) = CC(=O)N1CCN(c2ccc(C[C@H](N)C(=O)O)cc2)CC1; Bip(4'-COOH) = N[C@@H](Cc1ccc(-c2ccc(C(=O)O)cc2)cc1)C(=O)O; X6 = O=C(O)C12CC(c3ccc(C[C@H](N[*:1])C(=O)[*:2])cc3)(C1)C2; 1Nal(3S-Me) = C[C@@H](c1cccc2ccccc12)[C@H](N)C(=O)O; Ala(indolin-1-yl) = N[C@@H](CN1CCc2ccccc21)C(=O)O; Phe(4-COOH) = N[C@@H](Cc1ccc(C(=O)O)cc1)C(=O)O; Trp(6-F) = N[C@@H](Cc1c[nH]c2cc(F)ccc12)C(=O)O; dαMeDab = C[C@](CCN[*:3])(N[*:1])C(=O)[*:2]; h3Pal(5-CN) = N#Cc1cncc(CC[C@H](N)C(=O)O)c1; Pro(4R-NH2) = N[C@H]1CN[C@H](C(=O)O)C1; hTyr = N[C@@H](CCc1ccc(O)cc1)C(=O)O; X9 = CCCC[C@](C)(N[*:1])C(=O)[*:2]; hCha = N[C@@H](CCC1CCCCC1)C(=O)O; 4Pal = N[C@@H](Cc1ccncc1)C(=O)O; Cha = N[C@@H](CC1CCCCC1)C(=O)O; dDab = NCC[C@@H](N)C(=O)O; Nle = CCCC[C@H](N)C(=O)O; dNMeA = CN[C@H](C)C(=O)O; Dab = NCC[C@H](N)C(=O)O; Dap = NC[C@H](N)C(=O)O

Target: T1, Recombinant human IL-1β (Homo sapiens, UniProt P01584)
T1 construct: purchased BioLegend 579404
T1 sequence (P01584 117-269): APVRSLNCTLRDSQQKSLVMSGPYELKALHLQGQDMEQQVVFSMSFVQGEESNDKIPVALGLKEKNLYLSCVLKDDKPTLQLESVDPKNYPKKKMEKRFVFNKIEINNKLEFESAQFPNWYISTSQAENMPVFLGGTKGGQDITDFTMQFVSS
Assay: IL-6 assay in MRC5 cells: inhibition of IL-1β induced IL-6 secretion (AlphaLISA)
Type: cell-based
Details: inhibition of IL-1β induced IL-6 secretion in MRC5 cells; read-out: MRC5 IC50
Summary of the method: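 IL-1β at 2×EC80 in seeding medium (EMEM, 0.025% BSA) preincubated 1 h at ambient temperature with compound, then 3000 MRC5 cells/well added and incubated overnight at 37 °C, 5% CO2. IL-6 in conditioned medium quantified by AlphaLISA; IC50 from 4-parameter logistic fit.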

Compound | IC50 [nM]
C[C@@H]1C(=O)NCC(=O)N[C@@H](Cc2ccc(-c3ccc(C(=O)O)cc3)cc2)C(=O)N[C@@H](CC2CCCCC2)C(=O)NCC(=O)N[C@H](CCN)C(=O)N[C@@H](CCc2ccc(O)cc2)C(=O)N[C@@H](Cc2ccc(C34CC(C(=O)O)(C3)C4)cc2)C(=O)N[C@@H](Cc2c[nH]c3ccccc23)C(=O)N[C@@H](Cc2ccc(C(=O)O)cc2)C(=O)NCC(=O)N2C[C@H](N)C[C@H]2C(=O)N[C@@H]([C@@H](C)c2cccc3ccccc23)C(=O)N[C@@H](CC(=O)O)C(=O)N1C [Example 190] (cyclo([X6]W[Phe(4-COOH)]G[Pro(4R-NH2)][1Nal(3S-Me)]D[dNMeA]G[Bip(4'-COOH)][Cha]G[dDab][hTyr])) | 0.018
C[C@@H]1C(=O)NCC(=O)N[C@@H](Cc2ccc(-c3ccc(C(=O)O)cc3)cc2)C(=O)N[C@@H](Cc2ccncc2)C(=O)NCC(=O)N[C@H](CCN)C(=O)N[C@@H](CCC2CCCCC2)C(=O)N[C@@H](Cc2ccc([C@H]3CC[C@@H](C(=O)O)CC3)cc2)C(=O)N[C@@H](Cc2c[nH]c3ccccc23)C(=O)N[C@@H](Cc2ccc(C(=O)O)cc2)C(=O)NCC(=O)N2C[C@H](N)C[C@H]2C(=O)N[C@@H]([C@@H](C)c2cccc3ccccc23)C(=O)N[C@@H](CC(=O)O)C(=O)N1C [Example 191] (cyclo([Phe(4-(cis-4-COOH-cHex))]W[Phe(4-COOH)]G[Pro(4R-NH2)][1Nal(3S-Me)]D[dNMeA]G[Bip(4'-COOH)][4Pal]G[dDab][hCha])) | 0.019
C[C@@H]1C(=O)NCC(=O)N[C@@H](Cc2ccc(-c3ccc(C(=O)O)cc3)cc2)C(=O)N[C@@H](Cc2ccncc2)C(=O)NCC(=O)N[C@H](CCN)C(=O)N[C@@H](CCC2CCCCC2)C(=O)N[C@@H](Cc2ccc([C@H]3CC[C@H](C(=O)O)CC3)cc2)C(=O)N[C@@H](Cc2c[nH]c3cc(F)ccc23)C(=O)N[C@@H](Cc2ccc(C(=O)O)cc2)C(=O)NCC(=O)N2C[C@H](N)C[C@H]2C(=O)N[C@@H]([C@@H](C)c2cccc3ccccc23)C(=O)N[C@@H](CC(=O)O)C(=O)N1C [Example 192] (cyclo([Phe(4-(trans-4-COOH-cHex))][Trp(6-F)][Phe(4-COOH)]G[Pro(4R-NH2)][1Nal(3S-Me)]D[dNMeA]G[Bip(4'-COOH)][4Pal]G[dDab][hCha])) | 0.015
C[C@@H]1C(=O)NCC(=O)N[C@@H](Cc2ccc(-c3ccc(C(=O)O)cc3)cc2)C(=O)N[C@@H](Cc2ccncc2)C(=O)N[C@@H](CO)C(=O)N[C@H](CCN)C(=O)N[C@@H](CCC2CCCCC2)C(=O)N[C@@H](Cc2ccc([C@H]3CC[C@H](C(=O)O)CC3)cc2)C(=O)N[C@@H](Cc2c[nH]c3cc(F)ccc23)C(=O)N[C@@H](Cc2ccc(C(=O)O)cc2)C(=O)NCC(=O)N2C[C@H](N)C[C@H]2C(=O)N[C@@H]([C@@H](C)c2cccc3ccccc23)C(=O)N[C@@H](CC(=O)O)C(=O)N1C [Example 193] (cyclo([Phe(4-(trans-4-COOH-cHex))][Trp(6-F)][Phe(4-COOH)]G[Pro(4R-NH2)][1Nal(3S-Me)]D[dNMeA]G[Bip(4'-COOH)][4Pal]S[dDab][hCha])) | 0.012
C[C@@H]1C(=O)NCC(=O)N[C@@H](Cc2ccc(-c3ccc(C(=O)O)cc3)cc2)C(=O)N[C@@H](Cc2ccncc2)C(=O)NCC(=O)N[C@H](CCN)C(=O)N[C@@H](CCC2CCCCC2)C(=O)N[C@@H](Cc2ccc([C@H]3CC[C@H](C(=O)O)CC3)cc2)C(=O)N[C@@H](Cc2c[nH]c3ccccc23)C(=O)N[C@@H](Cc2ccc(C(=O)O)cc2)C(=O)NCC(=O)N2C[C@H](N)C[C@H]2C(=O)N[C@@H]([C@@H](C)c2cccc3ccccc23)C(=O)N[C@@H](CC(=O)O)C(=O)N1C [Example 196] (cyclo([Phe(4-(trans-4-COOH-cHex))]W[Phe(4-COOH)]G[Pro(4R-NH2)][1Nal(3S-Me)]D[dNMeA]G[Bip(4'-COOH)][4Pal]G[dDab][hCha])) | 0.03
CCCC[C@@H]1NC(=O)[C@@H](CCN)NC(=O)CNC(=O)[C@H](Cc2ccncc2)NC(=O)[C@H](Cc2ccc(-c3ccc(C(=O)O)cc3)cc2)NC(=O)CNC(=O)[C@@H](C)N(C)C(=O)[C@H](CC(=O)O)NC(=O)[C@H]([C@@H](C)c2cccc3ccccc23)NC(=O)[C@@H]2C[C@@H](N)CN2C(=O)CNC(=O)[C@H](Cc2ccc(C(=O)O)cc2)NC(=O)[C@H](Cc2c[nH]c3ccccc23)NC(=O)[C@H](Cc2ccc([C@H]3CC[C@H](C(=O)O)CC3)cc2)NC1=O [Example 197] (cyclo([Phe(4-(trans-4-COOH-cHex))]W[Phe(4-COOH)]G[Pro(4R-NH2)][1Nal(3S-Me)]D[dNMeA]G[Bip(4'-COOH)][4Pal]G[dDab][Nle])) | 0.024

Other lines, results leading:

IC50 [nM] | Compound
0.021 | CC(=O)N1CCN(c2ccc(C[C@@H]3NC(=O)[C@H](CCc4ccc(O)cc4)NC(=O)[C@@H](CCN)NC(=O)CNC(=O)[C@H](CN4CCc5ccccc54)NC(=O)[C@H](Cc4ccc(-c5ccc(C(=O)O)cc5)cc4)NC(=O)CNC(=O)[C@@H](C)N(C)C(=O)[C@H](CC(=O)O)NC(=O)[C@H]([C@@H](C)c4cccc5ccccc45)NC(=O)[C@@H]4C[C@@H](N)CN4C(=O)CNC(=O)[C@H](Cc4ccc(C(=O)O)cc4)NC(=O)[C@H](Cc4c[nH]c5ccccc45)NC3=O)cc2)CC1 [Example 198] (cyclo([Phe(4-(4-Ac-piperazinyl))]W[Phe(4-COOH)]G[Pro(4R-NH2)][1Nal(3S-Me)]D[dNMeA]G[Bip(4'-COOH)][Ala(indolin-1-yl)]G[dDab][hTyr]))
0.024 | CC(=O)N1CCN(c2ccc(C[C@@H]3NC(=O)[C@H](CCC4CCCCC4)NC(=O)[C@@](C)(CCN)NC(=O)CNC(=O)[C@H](Cc4ccncc4)NC(=O)[C@H](Cc4ccc(-c5ccc(C(=O)O)cc5)cc4)NC(=O)CNC(=O)[C@@H](C)N(C)C(=O)[C@H](CC(=O)O)NC(=O)[C@H]([C@@H](C)c4cccc5ccccc45)NC(=O)[C@@H]4C[C@@H](N)CN4C(=O)CNC(=O)[C@H](Cc4ccc(C(=O)O)cc4)NC(=O)[C@H](Cc4c[nH]c5ccccc45)NC3=O)cc2)CC1 [Example 199] (cyclo([Phe(4-(4-Ac-piperazinyl))]W[Phe(4-COOH)]G[Pro(4R-NH2)][1Nal(3S-Me)]D[dNMeA]G[Bip(4'-COOH)][4Pal]G[dαMeDab][hCha]))
0.034 | CCCC[C@]1(C)NC(=O)[C@@H](CCN)NC(=O)CNC(=O)[C@H](Cc2ccncc2)NC(=O)[C@H](Cc2ccc(-c3ccc(C(=O)O)cc3)cc2)NC(=O)CNC(=O)[C@@H](C)N(C)C(=O)[C@H](CC(=O)O)NC(=O)[C@H]([C@@H](C)c2cccc3ccccc23)NC(=O)[C@@H]2C[C@@H](N)CN2C(=O)CNC(=O)[C@H](Cc2ccc(C(=O)O)cc2)NC(=O)[C@H](Cc2c[nH]c3ccccc23)NC(=O)[C@H](Cc2ccc(N3CCN(C(C)=O)CC3)cc2)NC1=O [Example 200] (cyclo([Phe(4-(4-Ac-piperazinyl))]W[Phe(4-COOH)]G[Pro(4R-NH2)][1Nal(3S-Me)]D[dNMeA]G[Bip(4'-COOH)][4Pal]G[dDab][X9]))
0.03 | CC(=O)N1CCN(c2ccc(C[C@@H]3NC(=O)[C@H](CCC4CCCCC4)NC(=O)[C@@H](CCN)NC(=O)CNC(=O)[C@H](Cc4ccncc4)NC(=O)[C@H](Cc4ccc(-c5ccc(C(=O)O)cc5)cc4)NC(=O)CNC(=O)[C@@H](C)N(C)C(=O)[C@H](CC(=O)O)NC(=O)[C@H]([C@@H](C)c4cccc5ccccc45)NC(=O)[C@@H]4C[C@@H](N)CN4C(=O)CNC(=O)[C@H](Cc4ccc(C(=O)O)cc4)NC(=O)[C@H](Cc4c[nH]c5ccccc45)NC3=O)cc2)CC1 [Example 201] (cyclo([Phe(4-(4-Ac-piperazinyl))]W[Phe(4-COOH)]G[Pro(4R-NH2)][1Nal(3S-Me)]D[dNMeA]G[Bip(4'-COOH)][4Pal]G[dDab][hCha]))
0.029 | CC(=O)N1CCN(c2ccc(C[C@@H]3NC(=O)[C@H](CCc4ccc(O)cc4)NC(=O)[C@@H](CCN)NC(=O)CNC(=O)[C@H](CC4CCCCC4)NC(=O)[C@H](Cc4ccc(-c5ccc(C(=O)O)cc5)cc4)NC(=O)CNC(=O)[C@@H](C)N(C)C(=O)[C@H](CC(=O)O)NC(=O)[C@H]([C@@H](C)c4cccc5ccccc45)NC(=O)[C@@H]4C[C@@H](N)CN4C(=O)CNC(=O)[C@H](Cc4ccc(C(=O)O)cc4)NC(=O)[C@H](Cc4c[nH]c5ccccc45)NC3=O)cc2)CC1 [Example 202] (cyclo([Phe(4-(4-Ac-piperazinyl))]W[Phe(4-COOH)]G[Pro(4R-NH2)][1Nal(3S-Me)]D[dNMeA]G[Bip(4'-COOH)][Cha]G[dDab][hTyr]))
0.012 | CC(=O)N1CCN(c2ccc(C[C@@H]3NC(=O)[C@H](CCC4CCCCC4)NC(=O)[C@@H](C)NC(=O)[C@H](CC(C)C)NC(=O)[C@H](CCN)NC(=O)[C@H](Cc4ccc(-c5ccc(C(=O)O)cc5)cc4)NC(=O)CNC(=O)[C@@H](C)N(C)C(=O)[C@H](CC(=O)O)NC(=O)[C@H]([C@@H](C)c4cccc5ccccc45)NC(=O)[C@@H]4C[C@@H](N)CN4C(=O)CNC(=O)[C@H](Cc4ccc(C(=O)O)cc4)NC(=O)[C@H](Cc4c[nH]c5ccccc45)NC3=O)cc2)CC1 [Example 203] (cyclo([Phe(4-(4-Ac-piperazinyl))]W[Phe(4-COOH)]G[Pro(4R-NH2)][1Nal(3S-Me)]D[dNMeA]G[Bip(4'-COOH)][Dab]L[dA][hCha]))
0.009 | CC(=O)NC[C@@H]1NC(=O)[C@H](Cc2ccc(-c3ccc(C(=O)O)cc3)cc2)NC(=O)CNC(=O)[C@@H](C)N(C)C(=O)[C@H](CC(=O)O)NC(=O)[C@H]([C@@H](C)c2cccc3ccccc23)NC(=O)[C@@H]2C[C@@H](N)CN2C(=O)CNC(=O)[C@H](Cc2ccc(C(=O)O)cc2)NC(=O)[C@H](Cc2c[nH]c3ccccc23)NC(=O)[C@H](Cc2ccc(N3CCN(C(C)=O)CC3)cc2)NC(=O)[C@H](CCc2cncc(C#N)c2)NC(=O)[C@@H](C)NC(=O)[C@H](CCCCN)NC1=O [Example 204] (cyclo([Phe(4-(4-Ac-piperazinyl))]W[Phe(4-COOH)]G[Pro(4R-NH2)][1Nal(3S-Me)]D[dNMeA]G[Bip(4'-COOH)][Dap](Ac)K[dA][h3Pal(5-CN)]))
